Measurements from patent US12605418B2, “Chebulinic acid and its enriched fraction from the fruits of Terminalia chebula for treatment of benign prostatic hyperplasia (BPH) and its preparation thereof” (COUNCIL OF SCIENTIFIC AND INDUSTRIAL RESEARCH, priority 2020, dated 2026).
“Also recorded” adds a separate entry of the source.

How the values were obtained:
Assay type in all cases: in vivo, male Sprague-Dawley (SD) rats
[1] = system: Procaspase 3; assay: Expression of Procaspase 3 in BPH induced rat model; settings: vs induced animal model; finasteride positive control
[2] = system: Testosterone-induced BPH rats; assay: Prostate weight and prostate weight index (PI) in testosterone-induced BPH rat model; settings: for Prostate weight index (PI): oral once a day for 21 days, CA 100 mg/kg, CAEF 100/200 mg/kg, Finasteride 3 mg/kg, vs Testosterone induced group (FIG. 3); for Prostatic weight: BPH induced rats, vs induced group (FIGS. 3 and 6)
Experimental: 12-14-week-old (3 month) male Sprague-Dawley (SD) rats with initial body weights of 200-220 g were taken from National Animal Laboratory Centre, CSIR-Central drug research institute (CDRI), Lucknow. The animals were maintained in conditions in accordance with the rules and regulation of animal ethical committee. These rats were housed in a pathogen-free room at 23±2° C. and a relative humidity of 70% with an alternating 12 h light/dark cycle. To assess the therapeutic effect of Chebulinic Acid (CA) and Chebulinic acid Enriched fraction (CAEF) on Benign Prostatic Hyperplasia (BPH), rat BPH model has been successfully generated by testosterone induction method. For model induction of BPH, Orchiectomy (Surgical removal of Testis) of rats was performed and then animals were left for ten days to recover. Now BPH was induced through the daily subcutaneous injections of Testosterone (5 mg/kg & 6.25 mg/ml in Corn Oil) at the inguinal region for 28 days continuously. While the treatment group received 7 days continuous administration of Testosterone and then Testosterone+CA (100 mg/kg B.W) or Testosterone+CAEF (100/200 mg/kg B.W.) or Testosterone+Finasteride (3 mg/kg) were administered orally once a day to these animals for next 21 days (FIG. 3). In another experiment the treatment group received 7 days continuous administration of Testosterone and then Testosterone+CAEF (100 mg/kg B.W.) administered orally once a day to these animals for next 4 weeks (group 1) 8 weeks (group 2) and 12 weeks (group 3) (FIG. 6). After that these animals were left for fasting overnight and sacrificed next day; their prostatic as well as other reproductive organs were dissected out. Portions of the prostatic ventral lobes were stored in 4% paraformaldehyde for histological and immuno-histochemical processing. Half of the remaining prostate tissue was stored in RNA later and the other half was stored at −80° C. for subsequent biochemical and molecular experiments. Blood samples were obtained from the caudal vena cava and collected in serum separating tubes. Testosterone induced BPH animal models were sacrificed after the simultaneous treatment of 21 days. The intact prostate tissue was dissected and removed carefully from these sacrificed animals. Now the prostate weight (PW) was measured and the prostate index (PI) was calculated as PW (mg)/Body Weight (gm)×100. Data were expressed as the mean±SEM of four animals per group (n=4 per group). The values were analysed using one-way analysis of variance. Values were considered statistically significant at p<0.05.

[3] = system: Poly [ADP-ribose] polymerase 1 (PARP1); assay: Expression of PARP1 in BPH induced rat model; settings: vs BPH induced group; finasteride positive control
Experimental: (§1) To assess the therapeutic effect of Chebulinic Acid (CA) and Chebulinic acid Enriched fraction (CAEF) on Benign Prostatic Hyperplasia (BPH), rat BPH model has been successfully generated by testosterone induction method. For model induction of BPH, Orchiectomy (Surgical removal of Testis) of rats was performed and then animals were left for ten days to recover. Now BPH was induced through the daily subcutaneous injections of Testosterone (5 mg/kg & 6.25 mg/ml in Corn Oil) at the inguinal region for 28 days continuously. While the treatment group received 7 days continuous administration of Testosterone and then Testosterone+CA (100 mg/kg B.W) or Testosterone+CAEF (100/200 mg/kg B.W.) or Testosterone+Finasteride (3 mg/kg) were administered orally once a day to these animals for next 21 days (FIG. 3). In another experiment the treatment group received 7 days continuous administration of Testosterone and then Testosterone+CAEF (100 mg/kg B.W.) administered orally once a day to these animals for next 4 weeks (group 1) 8 weeks (group 2) and 12 weeks (group 3) (FIG. 6). After that these animals were left for fasting overnight and sacrificed next day; their prostatic as well as other reproductive organs were dissected out. Portions of the prostatic ventral lobes were stored in 4% paraformaldehyde for histological and immuno-histochemical processing. […]

[4] = system: Vascular endothelial growth factor (VEGF); assay: Expression of VEGF in BPH induced rat model; settings: within three weeks; vs non-treated induced BPH group; finasteride positive control
[5] = system: prostatic tissues in testosterone induced BPH rats; assay: Histopathological examination (H&E) of prostate tissue in testosterone-induced BPH rats; settings: for Histological conditions / architecture of the prostate: BPH induced rats (FIG. 4)
[6] = system: anti-apoptotic markers; assay: Anti-apoptotic markers in BPH rats (FIGS. 8-13, summary); settings: summary of FIGS. 8-13
Experimental: as §1

[7] = Testosterone serum level in BPH rats; settings: BPH induced rats after treatment
[8] = system: Prostate-Specific Antigen (PSA); assay: PSA expression in prostate tissue and serum of BPH rats (western blot); settings: three weeks, CA 100 mg/kg, CAEF 200 mg/kg, CAEF formulation 200 mg/kg
[9] = system: PSA; assay: PSA level in serum of BPH rats (ELISA); settings: summary statement, FIGS. 5 and 7

SMILES | Expression of Procaspase 3 [1] | Prostate weight index (PI) [2] | Expression of PARP1 [3] | Expression of VEGF [4] | Prostatic weight index compared with normal control group ([2]; 100/200 mg/kg dose (FIG. 3) and 100 mg/kg of CAEF (FIG. 6)) | Prostatic weight [2] | Prostatic weight ([2]; listed as Chebulinic acid) | Development of prostatic hyperplasia ([2]; testosterone-induced BPH rats) | Histological conditions / architecture of the prostate [5] | Histological conditions / architecture of the prostate ([5]; listed as Chebulinic acid) | Glandular hyperplasia of the prostate (histopathological examination) ([5]; BPH rats) | Prostatic lumen area ([5]; H&E, CA/CAEF 100/200 mg/kg, vs Induced BPH group (FIG. 4)) | Anti-apoptotic markers [6] | Level of testosterone in sera [7] | PSA expression in prostate tissue [8] | PSA expression in serum [8] | Level of PSA in sera [9]
CC(C)(C)NC(=O)[C@H]1CC[C@H]2[C@@H]3CC[C@H]4NC(=O)C=C[C@]4(C)[C@H]3CC[C@]12C [Finasteride] | decreased expression | close to the 200 mg/kg CA/CAEF treated group | reduced expression | reduced expression | – | – | – | – | – | – | – | – | – | – | – | – | –
O=C(O)CC1C(=O)OC2C(COC(=O)c3cc(O)c(O)c(O)c3)OC(OC(=O)c3cc(O)c(O)c(O)c3)C(OC(=O)c3cc(O)c(O)c4c3C1C(O)C(=O)O4)C2OC(=O)c1cc(O)c(O)c(O)c1 [CA, 1.3,6-tri-O-galloyl-2,4-chebuloyl-beta-D-glucose] | – | significantly decreased; also recorded: reduced significantly | – | – | quite close to the normal control group | reduced significantly; also recorded: significant reduction | decreased the prostate weight | significantly suppressed; also recorded: suppressed the development of prostatic hyperplasia considerably | improved histological conditions | restored the altered histological architecture | mild glandular hyperplasia | increased prostatic lumen areas significantly | down-regulated | reduced level | down-regulated | down-regulated | reduced level
